Experimental data reported in patent publication US20220024921A1, “1,3,4-OXADIAZOLONE COMPOUND AND PHARMACEUTICAL” (NIPPON SHINYAKU CO., LTD., priority 2018, published 2022).
pIC50: −log10 of the molar value.

Legend:
[1] = biological target: T1, PIM3 serine/threonine kinase (Homo sapiens, UniProt Q86V86); assay: PIM3 serine/threonine kinase inhibitory effect; assay type: biochemical; conditions: PIM3 serine/threonine kinase activity; ATP 10 μM; 30° C., 30 minutes
T1 construct: purchased Carna Bioscience, Inc
Description: (§1) Each test substance was prepared to 10 mM with dimethylsulfoxide (DMSO), and further diluted with DMSO so as to have concentrations of 1000, 300, 100, 30, 10, 3, 1, 0.3, 0.1, 0.03, 0.01, and 0.001 μM. Moreover, each dilution was further diluted 33.3-fold with an assay buffer to prepare a test substance solution. The composition of the assay buffer was 50 mM HEPES (pH 7.0), 0.02% NaN3, 0.01% Bovine Serum Albumin, 0.1 mM Orthovanadate, 1 mM Dithiothreitol, and 5 mM MgCl2.
(§2) 5 μL of each test substance solution was added to 384-well plates (n=2), and then 2.5 μL of a substrate solution (substrate 3-biotin (Cisbio Bioassays SAS), final concentration in the reaction solution: 0.5 μM) and 2.5 μL of an ATP solution (in the cases of PIM1, 2, 3, the final concentrations in the reaction solutions were 40, 2, and 10 μM, respectively) were added, 5 μL of each of PIM1, 2, 3 serine/threonine kinase solutions (Carna Bioscience, Inc., the final concentrations in the reaction solutions were 0.15, 1.6, and 0.25 μg/ml, respectively) was finally added, and the mixture was reacted at 30° C. for 30 minutes. The test substance concentrations in the reaction solutions are 10000, 3000, 1000, 300, 100, 30, 10, 3, 1, 0.3, 0.1, and 0.01 nM.
(§3) Thereafter, 15 μL of each detection solution (62.5 nM Streptavidin-XL665 (Cisbio Bioassays SAS), […] STK antibody-Cryptate (Cisbio Bioassays SAS), 50 mM HEPES (pH 7.0), 0.8 M KF, 0.1% Bovine Serum Albumin, 20 mM ethylenediaminetetraacetic acid) was added to each well. After stirring, the mixture was reacted at 30° C. for 1 hour. Absorbance (OD620, OD665) at 620 and 665 nm was measured with a microplate reader (SpectraMax M5e, Molecular Devices, LLC).
(§4) Non-linear regression analysis was performed by an SAS system (SAS Institute Inc.) using the ratio (OD665/OD620) of the measured absorbance to calculate a test substance concentration (IC50) that inhibits PIM1 serine/threonine kinase activity by 50%.
(§5) For the compounds with the following Example numbers, in addition to the above PIM1 serine/threonine kinase activity (IC50), test substance concentrations (IC50) that inhibit PIM2 serine/threonine kinase activity and PIM3 serine/threonine kinase activity by 50% were calculated.

[2] = biological target: T2, PIM2 serine/threonine kinase (Homo sapiens, UniProt Q9P1W9); assay: PIM2 serine/threonine kinase inhibitory effect; assay type: biochemical; conditions: PIM2 serine/threonine kinase activity; ATP 2 μM; 30° C., 30 minutes
T2 construct: purchased Carna Bioscience, Inc
Description: as §1, §2, §3, §4, §5

T2 sequence (Q9P1W9 whole entry): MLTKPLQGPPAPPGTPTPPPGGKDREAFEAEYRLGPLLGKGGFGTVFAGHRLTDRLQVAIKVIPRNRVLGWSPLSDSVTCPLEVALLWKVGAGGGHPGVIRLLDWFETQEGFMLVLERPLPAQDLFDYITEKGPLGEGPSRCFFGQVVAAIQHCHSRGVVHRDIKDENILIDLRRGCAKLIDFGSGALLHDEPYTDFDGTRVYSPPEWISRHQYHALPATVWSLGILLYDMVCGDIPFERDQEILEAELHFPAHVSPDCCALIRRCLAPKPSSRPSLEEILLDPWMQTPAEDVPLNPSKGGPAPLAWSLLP

Work on `C[C@H](Nc1cc(-c2n[nH]c(=O)o2)cc(F)c1C(F)(F)F)C1CCNCC1.Cl` [Example 75, 5-[3-fluoro-5-{[(1S)-1-(piperidin-4-yl)ethyl]amino}-4-(trifluoromethyl)phenyl]-1,3,4-oxadiazol-2(3H)-one hydrochloride] yielded a pIC50 [1] of 8.00 and a pIC50 [2] of 8.64.
